In PubChem BioAssay (NCI):
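Dose response: 5 concentrations. Exposure: 48 h. Format: 96-well plates. Endpoint: linear interpolation; highest concentration if not reached. The concentration for full growth arrest is given as TGI.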

Experiments:
Experiment in all cases: DTP human tumour cell line panel, 48 h
OVCAR-4 ovarian = system: OVCAR-4 ovarian
UACC-257 melanoma = system: UACC-257 melanoma
MDA-N = system: MDA-N
SK-MEL-28 melanoma = system: SK-MEL-28 melanoma
OVCAR-8 ovarian = system: OVCAR-8 ovarian
MDA-MB-435 = system: MDA-MB-435
SF-295 CNS = system: SF-295 CNS
HOP-92 NSCLC = system: HOP-92 NSCLC
ACHN renal = system: ACHN renal
UO-31 renal = system: UO-31 renal
SK-MEL-2 melanoma = system: SK-MEL-2 melanoma

SMILES	TGI (OVCAR-4 ovarian)	TGI (UACC-257 melanoma)	TGI (MDA-N)	TGI (SK-MEL-28 melanoma)	TGI (OVCAR-8 ovarian)	TGI (MDA-MB-435)	TGI (SF-295 CNS)	TGI (HOP-92 NSCLC)	TGI (ACHN renal)	TGI (UO-31 renal)	TGI (SK-MEL-2 melanoma)
CCN(CC)c1ccc(/C=C/C2=NN(c3cccc(S(=O)(=O)O)c3)C3(C2)C(Cl)C(=O)N3c2nc3ccccc3s2)cc1 (stereo not drawn)	9.83 µM	22.6 µM	30 µM	63 µM	31.4 µM	17 µM	27.7 µM	15.3 µM	23.8 µM	3.6 µM	29.3 µM
N#C/C(=C\c1ccc(Cl)cc1)c1nc2ccccc2c(=O)[nH]1	> 100 µM	> 100 µM	> 100 µM	> 100 µM	> 100 µM	> 100 µM	> 100 µM	39.9 µM	> 100 µM	> 100 µM	> 100 µM
O=c1cc(-c2ccc(O)c(O)c2)oc2cc(OC3OC(CO)C(O)C(O)C3O)cc(O)c12 (stereo not drawn)	> 100 µM	> 100 µM	> 100 µM	> 100 µM	> 100 µM	> 100 µM	> 100 µM	> 100 µM	> 100 µM	> 100 µM	> 100 µM
